# Article PMC7956476, “Quinoline Functionalized Schiff Base Silver (I) Complexes: Interactions with Biomolecules and In Vitro Cytotoxicity, Antioxidant and Antimicrobial Activities” (Molecules, 2021)
# Tests used:
# [1] = Ferric reducing antioxidant power (FRAP) assay; format: biochemical; conditions: done in triplicate
# [2] = test system: breast cancer cell line (MDA-MB231); assay: Cytotoxicity assay (CellTiter 96 AQueous One Solution, 72 h); format: cell-based, human; conditions: EC50 in HEK293 over EC50 in MDA-MB231
# Experimental: (§1) In vitro cell viability with cultured cells is a method commonly used for cytotoxicity activities of potential anticancer compounds due to reduced cost speed, and potential for automation, and tests using human cells other than some in vivo animal tests. […] The cytotoxicity assay was conducted as per the standard method and as described by Abrahams et al. 2018 [111]. […] The plate was then incubated for 72 h at 37 °C and 5% CO2. To each well, 20 µL CellTiter 96 AQueous One Solution (Promega, Madison, WI, USA) was added and the plates were incubated for 4 h as previously described. Thereafter, absorbance was read at 490 nm on a multiplate reader (Molecular Devices, San Jose, CA, USA). […] The values recorded are averages of at least three separate experiments (n = 3).
# [3] = test system: cervical cancer cell line (HELA); assay: as above; format: cell-based, human; conditions: EC50 in HEK293 over EC50 in HELA
# Experimental: as §1
# [4] = test system: neuronal cancer cell line (SHSY5Y); assay: as above; format: cell-based, human; conditions: EC50 in HEK293 over EC50 in SHSY5Y
# Experimental: as §1
# CT-DNA-EB adduct = assay: Fluorescence competitive displacement of ethidium bromide from CT-DNA; format: binding, calf; conditions: for CT-DNA-EB-Complex Ksv (M^−1) × 10^4: Stern–Volmer quenching constant, EB displacement, 25 °C; for CT-DNA-EB-Complex Kq (M^−1S^−1) × 10^12: bimolecular quenching constant, Ksv = Kqτo, τo 10^−8 s; for CT-DNA-EB-Complex Kbin (M^−1) × 10^5: binding constant from double-logarithmic plot
# Procedure, shortened: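 CT-DNA (15 µM) was pre-equilibrated 30 min with ethidium bromide (15 µM) in phosphate buffer pH 7.2, then titrated with complexes (0–20 µM) at 8-min intervals at room temperature. EB emission was recorded at 530–700 nm (excitation 525 nm, 25 °C), and quenching was analysed by Stern–Volmer to give Ksv and Kq (τo taken as 10^−8 s).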
# [5] = target: bovine serum albumin (BSA) (Bos taurus, UniProt P02769); assay: Albumin binding by absorption spectroscopy titration
# bovine serum albumin (BSA), sequence (P02769 25-607): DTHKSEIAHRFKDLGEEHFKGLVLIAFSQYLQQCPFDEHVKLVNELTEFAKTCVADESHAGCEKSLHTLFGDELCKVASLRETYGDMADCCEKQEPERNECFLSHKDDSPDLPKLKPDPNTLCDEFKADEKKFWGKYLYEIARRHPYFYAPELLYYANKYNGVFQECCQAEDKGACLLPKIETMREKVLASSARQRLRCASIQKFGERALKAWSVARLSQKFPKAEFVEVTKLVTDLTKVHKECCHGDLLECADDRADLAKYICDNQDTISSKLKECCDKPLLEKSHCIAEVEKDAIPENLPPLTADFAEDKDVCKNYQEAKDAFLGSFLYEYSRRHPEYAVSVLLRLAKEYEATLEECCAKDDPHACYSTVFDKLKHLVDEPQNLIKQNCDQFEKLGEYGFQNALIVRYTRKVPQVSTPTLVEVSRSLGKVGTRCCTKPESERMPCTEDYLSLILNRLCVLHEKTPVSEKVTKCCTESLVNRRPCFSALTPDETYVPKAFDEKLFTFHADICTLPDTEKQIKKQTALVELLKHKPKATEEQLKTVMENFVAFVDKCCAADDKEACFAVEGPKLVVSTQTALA
Compound,Antioxidant (IC50 mg/mL) FRAP [1],Selectivity Index (SI) MDA-MB231 [2],Selectivity Index (SI) HELA [3],Selectivity Index (SI) SHSY5Y [4],CT-DNA-EB-Complex Ksv (M^−1) × 10^4 (CT-DNA-EB adduct),CT-DNA-EB-Complex Kq (M^−1S^−1) × 10^12 (CT-DNA-EB adduct),CT-DNA-EB-Complex Kbin (M^−1) × 10^5 (CT-DNA-EB adduct),Protein-Complex Kb (M^−1) × 10^4 [5]
"[Ag+].[O-][Cl+3]([O-])([O-])[O-].c1ccc2nc(-c3nc4ccccc4s3)ccc2c1.c1ccc2nc(-c3nc4ccccc4s3)ccc2c1 [Complex Q7, [Ag(L2)2]ClO4]",1.13 ± 0.044 mg/mL,2.40,4.39,3.30,3.96 (M^−1) × 10^4,3.96 (M^−1S^−1) × 10^12,1.29 (M^−1) × 10^5,9.38 (M^−1) × 10^4
"Cc1ccc(N=Cc2ccc3ccccc3n2)cc1.Cc1ccc(N=Cc2ccc3ccccc3n2)cc1.[Ag+].[O-][Cl+3]([O-])([O-])[O-] [Complex Q9, [Ag(L4)2]ClO4]",1.62 ± 0.078 mg/mL,2.57,4.48,2.12,2.49 (M^−1) × 10^4,2.49 (M^−1S^−1) × 10^12,6.53 (M^−1) × 10^5,5.43 (M^−1) × 10^4
